Broadly, the logP is a log measure of how a compound divides between an organic and an aqueous phase.

Data set [1] has as its system Rattus norvegicus. Nature of the data set: Percent reduction in paw volume (right primary lesion, days 9-18) by 33 mg/kg p.o. in rats. The format is functional. The following applies: route oral.
The nature of data set [2]: Partition coefficient (logP). The following applies: octanol/water.
For data set [3], the system named is Rattus norvegicus. Nature of the data set: Percent reduction in paw volume (right primary lesion, days 0-8) by 33 mg/kg p.o. in rats. The format is functional. To be noted: route oral.
The test system of data set [4] is Rattus norvegicus. Nature of the data set: Percent reduction in paw volume ([…], days 9-18) by 33 mg/kg p.o. in rats. The format is functional. To be noted: route oral.
In data set [5] the test system is Rattus norvegicus. Nature of the data set: Improvement in joint mobility at 33 mg/kg p.o. in rat model of arthritis. The following applies: route oral. The format is functional.
Data set [6] deals with Rattus norvegicus. Nature of the data set: Antiarthritic activity by measuring percent reduction in paw volume in Sprague Dawley rat by peroral administration of 33 mg/kg. The format is functional. To be noted: route oral.
The test system of data set [7] is Rattus norvegicus. Nature of the data set: Antiarthritic activity by measuring % reduction in paw volume in Sprague Dawley rat, peroral administration of 10 mg/kg, volume change in the uninjected paw([…]) measured from day 9 to day 18. To be noted: route oral. The format is functional.

SMILES strings stand for the structures.

`Nc1nc(-c2ccncc2)ns1`: the Reduction with Rattus norvegicus [1] is given as 20%; in the data set on Rattus norvegicus [3], 11%; in the data set with Rattus norvegicus [4], 74%; in the data set with Rattus norvegicus [5] it was 33%. This compound also returned a logP in data set [2] of 1.72.
Taken in the same sequence, the figures for `Nc1nc(-c2cccnc2)ns1` were 22%, 15%, 49%, 24% and 1.58.
As to `CC(C)(C)c1nsc(N)n1`, the Reduction with Rattus norvegicus [1] worked out at 30%; in the data set on Rattus norvegicus [3], 16%; with Rattus norvegicus [4] it was 45%; in the data set with Rattus norvegicus [5], 28%. The compound also returned a logP in data set [2] of 1.78.
Taken in the same sequence, the figures for `Nc1nc(Cc2ccccc2)ns1` were 42%, 28%, 77%, 36% and 2.05.
The corresponding values for `Nc1nc(-c2cnccn2)ns1` are 17%, 10%, 24%, 6% and 0.52.
The corresponding values for `Nc1ncns1` are 59%, 45%, 106%, 69% and 0.66.
In data set [2], `CC(C)(C)c1ccc(-c2nsc(N)n2)cc1` came in with a logP of 1.78. In addition, the Reduction with Rattus norvegicus [3] amounted to 27%; in the data set with Rattus norvegicus [6] it was 2%; in the data set with Rattus norvegicus [4] it was 6%; in the data set with Rattus norvegicus [5], 18%.
Take `Nc1nc(-c2ccccn2)ns1`: the Reduction in the data set on Rattus norvegicus [1] was found to be 44%; with Rattus norvegicus [3], 8%; in the data set on Rattus norvegicus [4], 65%; with Rattus norvegicus [5] it was 70%. The compound also had a log partition coefficient (logP) in data set [2] of 1.05.
Turning to `CC(=O)Nc1nc(-c2cc(C(C)(C)C)c(O)c(C(C)(C)C)c2)no1`, the Reduction in the data set on Rattus norvegicus [1] came to 66%; with Rattus norvegicus [3] it was 80%; in the data set with Rattus norvegicus [4] it was 79%; with Rattus norvegicus [5], 75%.
For `CCCc1nsc(N)n1`, the Reduction with Rattus norvegicus [1] was found to be 40%; with Rattus norvegicus [3], 13%; in the data set with Rattus norvegicus [4], 54%; in the data set on Rattus norvegicus [5], 47%. The compound also showed a logP in data set [2] of 1.12.
Taken in the same sequence, the figures for `CC(C)(C)c1cc(-c2noc(N)n2)cc(C(C)(C)C)c1O` were 56%, 47%, 103%, 89% and 3.72.
Taken in the same sequence, the figures for `Cc1nsc(N)n1` were 50%, 38%, 66%, 84% and 0.
In the case of `C/C=C/C[C@@H](C)[C@@H](O)[C@H]1C(=O)N[C@@H](CC)C(=O)N(C)CC(=O)N(C)[C@@H](CC(C)C)C(=O)N[C@@H](C(C)C)C(=O)N(C)[C@@H](CC(C)C)C(=O)N[C@@H](C)C(=O)N[C@H](C)C(=O)N(C)[C@@H](CC(C)C)C(=O)N(C)[C@@H](CC(C)C)C(=O)N(C)[C@@H](C(C)C)C(=O)N1C` [CYCLOSPORINE], the Reduction in the data set with Rattus norvegicus [3] was found to be 51%; in the data set on Rattus norvegicus [7], 77%.
Turning to `Nc1nc[nH]n1` [AMITROLE], the Reduction in the data set on Rattus norvegicus [1] amounted to 46%; in the data set with Rattus norvegicus [3], 27; with Rattus norvegicus [4], 57%; with Rattus norvegicus [5], 26%.
The corresponding values for `O=C(Nc1nc(-c2ccccc2)ns1)OCC(Cl)(Cl)Cl` are 45%, 50%, 68% and 42%.
The corresponding values for `Nc1nc(-c2ccccc2)ns1` are 51%, 22%, 84% and 13%.
Taken in the same sequence, the figures for `Nc1n[nH]c(-c2ccccn2)n1` were 32%, 3%, 60% and 21%.
Turning to `Nc1nc(-c2cccs2)ns1`, the Reduction in the data set on Rattus norvegicus [1] amounted to 25%; with Rattus norvegicus [3], 6%; with Rattus norvegicus [4] it was 43%; in the data set on Rattus norvegicus [5], 7%. The compound also yielded a logP in data set [2] of 1.77.
The corresponding values for `Nc1nc(-c2ccc(Cl)cc2)ns1` are 50%, 20%, 46%, 18% and 2.83.
Taken in the same sequence, the figures for `Nc1nc(-c2ncccn2)ns1` were 31%, 28%, 5%, 30% and 0.08.
Turning to `Nc1nc(-c2ccccn2)no1`, the Reduction stood at 22% in the data set on Rattus norvegicus [1], 24% in the data set with Rattus norvegicus [3], 66% in the data set with Rattus norvegicus [4] and 8% with Rattus norvegicus [5].

For the origin of these results see ChEMBL document CHEMBL1127762, “Five-membered heterocyclic amines as potential anti-rheumatoid arthritis agents” (Bioorg Med Chem Lett, 1994).
